Assays:
Experiment in all cases: relative viability (nuclei count vs DMSO), 5 days (fraction); higher = more cells survive
[1] = compound: C1CC2=C(C1)C=C(C=C2)OC3=NC(=C4C(=N3)N(C=N4)CC5=CC=C(C=C5)C6=CC=CC=C6)N[C@@H](CC7=CC=CC=C7)CO [QS11] + CC1(C)CCC(c2ccc(Cl)cc2)=C(CN2CCN(c3ccc(C(=O)NS(=O)(=O)c4ccc(N[C@H](CCN5CCOCC5)CSc5ccccc5)c(S(=O)(=O)C(F)(F)F)c4)cc3)CC2)C1 [Navitoclax] (partner 0.5 µM)
Procedure, shortened: (§1)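 After 5 days of treatment, lung cancer cells in 1536-well plates were fixed and stained in a single step (final 0.05% Triton X-100, 1% formaldehyde, 1 ug/ml Hoechst) and their nuclei counted on 4× images. Treatment had been applied by pin tool the day after seeding as one drug alone or as a fixed anchor-drug dose with five library-drug doses (not always all listed) in √10 steps. Relative viability is the nuclei count of treated wells divided by that of vehicle wells, and values are medians of duplicate plates.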

[2] = compound: CC1=C(C=C(C=C1)NC(=O)C2=CC(=CC=C2)C(C)(C)C#N)NC3=CC4=C(C=C3)N=CN(C4=O)C [AZ628] + COc1cc2c(Oc3ccc(NC(=O)C4(C(=O)Nc5ccc(F)cc5)CC4)cc3F)ccnc2cc1OCCCN1CCOCC1 [Foretinib] (partner 0.25 µM)
Procedure, shortened: as §1

[3] = compound: C[As](C)SC[C@H](NC(=O)CC[C@H](N)C(=O)O)C(=O)NCC(=O)O [Darinaparsin] + COc1cc2c(Oc3ccc(NC(=O)C4(C(=O)Nc5ccc(F)cc5)CC4)cc3F)ccnc2cc1OCCCN1CCOCC1 [Foretinib] (partner 0.25 µM)
Procedure, shortened: as §1

[4] = compound: C1CC2=C(C1)C=C(C=C2)OC3=NC(=C4C(=N3)N(C=N4)CC5=CC=C(C=C5)C6=CC=CC=C6)N[C@@H](CC7=CC=CC=C7)CO [QS11] + COc1cc2c(Oc3ccc(NC(=O)C4(C(=O)Nc5ccc(F)cc5)CC4)cc3F)ccnc2cc1OCCCN1CCOCC1 [Foretinib] (partner 0.25 µM)
Procedure, shortened: as §1

Question: LCLC-97TM1 was tested. Which relative viability ([1]; first compound 0.08 µM) did it give?
Answer: 0.414

Question: And the relative viability ([1]; first compound 0.253 µM)?
Answer: 0.328

Question: What about the relative viability ([1]; first compound 0.8 µM) of the same cell line?
Answer: 0.387

Question: And the relative viability ([1]; first compound 2.53 µM)?
Answer: 0.503

Question: And the relative viability ([1]; first compound 8 µM)?
Answer: 0.432

Question: What about the relative viability ([2]; first compound 0.08 µM) of the same cell line?
Answer: 0.95

Question: And the relative viability ([2]; first compound 0.253 µM)?
Answer: 0.867

Question: What about the relative viability ([2]; first compound 0.8 µM) of the same cell line?
Answer: 0.805

Question: What about the relative viability ([2]; first compound 2.53 µM) of the same cell line?
Answer: 0.682

Question: And the relative viability ([2]; first compound 8 µM)?
Answer: 0.301

Question: And the relative viability ([3]; first compound 0.08 µM)?
Answer: 0.981

Question: And the relative viability ([3]; first compound 0.8 µM)?
Answer: 0.882

Question: And the relative viability ([3]; first compound 2.53 µM)?
Answer: 0.824

Question: What about the relative viability ([3]; first compound 8 µM) of the same cell line?
Answer: 1.04

Question: What about the relative viability ([4]; first compound 0.08 µM) of the same cell line?
Answer: 0.957

Question: What about the relative viability ([4]; first compound 0.253 µM) of the same cell line?
Answer: 0.949

Question: And the relative viability ([4]; first compound 2.53 µM)?
Answer: 0.934

Question: And the relative viability ([4]; first compound 8 µM)?
Answer: 0.931

Source: the supplement of paper PMC10307832
